# Measurements taken from ChEMBL document CHEMBL1201862, “PubChem BioAssay data set” (2004).
#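 Method: 48-hour compound exposure of cells in 96-well plates, five concentrations, linear interpolation of endpoints. GI50 = concentration required for 50% inhibition of growth.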 Active and inactive are the calls of the source. Rule as the data show it: active = GI50 up to about 1.1 µM and inactive = higher.
# Tests used:
# Experiment in all cases: NCI tumour cell line growth inhibition, 48 h
# COLO 205 = test system: COLO 205
# HCC 2998 = test system: HCC 2998
# M14 = test system: M14
# A549 = test system: A549
# CCRF-CEM = test system: CCRF-CEM
# PC-3 = test system: PC-3
# CAKI-1 = test system: CAKI-1
# SNB-19 = test system: SNB-19
# HOP-92 = test system: HOP-92
# NCI-H23 = test system: NCI-H23
# DU-145 = test system: DU-145
# HCT-15 = test system: HCT-15
# SK-MEL-2 = test system: SK-MEL-2
# RXF 393 = test system: RXF 393
# UACC-257 = test system: UACC-257
# HL-60 = test system: HL-60
# SR = test system: SR
# SNB-75 = test system: SNB-75
# 786-0 = test system: 786-0
# HOP-62 = test system: HOP-62
# T47D = test system: T47D
# SK-OV-3 = test system: SK-OV-3
# A498 = test system: A498
# TK-10 = test system: TK-10
# NCI/ADR-RES = test system: NCI/ADR-RES
# U-251 = test system: U-251
# IGROV-1 = test system: IGROV-1
# OVCAR-4 = test system: OVCAR-4
# RPMI-8226 = test system: RPMI-8226
# KM12 = test system: KM12
# Malme-3M = test system: Malme-3M
# K562 = test system: K562
# MOLT-4 = test system: MOLT-4
# MDA-MB-231 = test system: MDA-MB-231
# LOX IMVI = test system: LOX IMVI
# EKVX = test system: EKVX
# BT-549 = test system: BT-549
# MDA-N = test system: MDA-N
# NCI-H522 = test system: NCI-H522
# SW-620 = test system: SW-620
# SF-539 = test system: SF-539
# OVCAR-5 = test system: OVCAR-5
# HCT-116 = test system: HCT-116
# ACHN = test system: ACHN
# HT-29 = test system: HT-29
# NCI-H460 = test system: NCI-H460
# Hs-578T = test system: Hs-578T
# UACC-62 = test system: UACC-62
# MDA-MB-435 = test system: MDA-MB-435
# SN12C = test system: SN12C
# SK-MEL-5 = test system: SK-MEL-5
# SK-MEL-28 = test system: SK-MEL-28
# NCI-H226 = test system: NCI-H226
# SF-295 = test system: SF-295
# MCF7 = test system: MCF7
# OVCAR-8 = test system: OVCAR-8
# OVCAR-3 = test system: OVCAR-3
# SF-268 = test system: SF-268
# UO-31 = test system: UO-31
compound,measurement,setting,value
COCn1c2ccc(OC(C)=O)cc2c2c(=O)oc(N(C)C)nc21,GI50,COLO 205,> 100 µM (inactive)
same,GI50,HCC 2998,> 100 µM (inactive)
same,GI50,M14,> 100 µM (inactive)
same,GI50,A549,> 100 µM (inactive)
same,GI50,CCRF-CEM,> 100 µM (inactive)
same,GI50,PC-3,> 100 µM (inactive)
same,GI50,CAKI-1,> 100 µM (inactive)
same,GI50,SNB-19,> 100 µM (inactive)
same,GI50,HOP-92,> 100 µM (inactive)
same,GI50,NCI-H23,> 100 µM (inactive)
same,GI50,DU-145,> 100 µM (inactive)
same,GI50,HCT-15,> 100 µM
same,GI50,SK-MEL-2,> 100 µM (inactive)
same,GI50,RXF 393,> 100 µM (inactive)
same,GI50,UACC-257,> 100 µM (inactive)
same,GI50,HL-60,> 100 µM (inactive)
same,GI50,SR,> 100 µM (inactive)
same,GI50,SNB-75,> 100 µM (inactive)
same,GI50,786-0,> 100 µM (inactive)
same,GI50,HOP-62,> 100 µM (inactive)
same,GI50,T47D,> 100 µM (inactive)
same,GI50,SK-OV-3,> 100 µM (inactive)
same,GI50,A498,> 100 µM (inactive)
same,GI50,TK-10,> 100 µM (inactive)
same,GI50,NCI/ADR-RES,> 100 µM (inactive)
same,GI50,U-251,> 100 µM (inactive)
same,GI50,IGROV-1,> 100 µM (inactive)
same,GI50,OVCAR-4,> 100 µM (inactive)
same,GI50,RPMI-8226,> 100 µM (inactive)
same,GI50,KM12,> 100 µM (inactive)
same,GI50,Malme-3M,> 100 µM (inactive)
same,GI50,K562,> 100 µM (inactive)
same,GI50,MOLT-4,> 100 µM (inactive)
same,GI50,MDA-MB-231,> 100 µM (inactive)
same,GI50,LOX IMVI,> 100 µM (inactive)
same,GI50,EKVX,> 100 µM (inactive)
same,GI50,BT-549,> 100 µM (inactive)
same,GI50,MDA-N,> 100 µM (inactive)
same,GI50,NCI-H522,> 100 µM (inactive)
same,GI50,SW-620,> 100 µM (inactive)
same,GI50,SF-539,> 100 µM (inactive)
same,GI50,OVCAR-5,> 100 µM (inactive)
same,GI50,HCT-116,> 100 µM (inactive)
same,GI50,ACHN,> 100 µM (inactive)
same,GI50,HT-29,> 100 µM (inactive)
same,GI50,NCI-H460,> 100 µM (inactive)
same,GI50,Hs-578T,> 100 µM (inactive)
same,GI50,UACC-62,> 100 µM (inactive)
same,GI50,MDA-MB-435,> 100 µM (inactive)
same,GI50,SN12C,> 100 µM (inactive)
same,GI50,SK-MEL-5,> 100 µM (inactive)
same,GI50,SK-MEL-28,> 100 µM (inactive)
same,GI50,NCI-H226,> 100 µM (inactive)
same,GI50,SF-295,> 100 µM (inactive)
same,GI50,MCF7,> 100 µM (inactive)
same,GI50,OVCAR-8,> 100 µM (inactive)
CN(C)c1ccc2c(c1)oc(=O)c1ccccc12,GI50,COLO 205,12.2 µM (inactive)
same,GI50,HCC 2998,14.9 µM (inactive)
same,GI50,M14,13 µM (inactive)
same,GI50,A549,14.7 µM (inactive)
same,GI50,CCRF-CEM,4.24 µM (inactive)
same,GI50,PC-3,15.7 µM (inactive)
same,GI50,CAKI-1,11.4 µM (inactive)
same,GI50,SNB-19,14.3 µM (inactive)
same,GI50,HOP-92,12.3 µM (inactive)
same,GI50,NCI-H23,8.05 µM (inactive)
same,GI50,DU-145,10.7 µM (inactive)
same,GI50,HCT-15,12.6 µM
same,GI50,SK-MEL-2,6.24 µM (inactive)
same,GI50,RXF 393,5.4 µM (inactive)
same,GI50,UACC-257,14.4 µM (inactive)
same,GI50,HL-60,3.69 µM (inactive)
same,GI50,SR,3.2 µM (inactive)
same,GI50,SNB-75,17.8 µM (inactive)
same,GI50,786-0,11.9 µM (inactive)
same,GI50,HOP-62,29.2 µM (inactive)
same,GI50,T47D,12.2 µM (inactive)
same,GI50,OVCAR-3,4.61 µM (inactive)
same,GI50,A498,15.8 µM (inactive)
same,GI50,TK-10,19.7 µM (inactive)
same,GI50,NCI/ADR-RES,14.1 µM (inactive)
same,GI50,U-251,11.2 µM (inactive)
same,GI50,IGROV-1,13.7 µM (inactive)
same,GI50,OVCAR-4,12.3 µM (inactive)
same,GI50,RPMI-8226,3.59 µM (inactive)
same,GI50,Malme-3M,11.8 µM (inactive)
same,GI50,K562,4.52 µM (inactive)
same,GI50,MOLT-4,16.9 µM (inactive)
same,GI50,MDA-MB-231,16.5 µM (inactive)
same,GI50,LOX IMVI,6.14 µM (inactive)
same,GI50,EKVX,16.7 µM (inactive)
same,GI50,BT-549,3.44 µM (inactive)
same,GI50,MDA-N,6.27 µM (inactive)
same,GI50,NCI-H522,8.36 µM (inactive)
same,GI50,SW-620,11.4 µM (inactive)
same,GI50,SF-539,14 µM (inactive)
same,GI50,OVCAR-5,15.5 µM (inactive)
same,GI50,HCT-116,12.3 µM (inactive)
same,GI50,ACHN,18.5 µM (inactive)
same,GI50,HT-29,10.4 µM (inactive)
same,GI50,NCI-H460,10.4 µM (inactive)
same,GI50,Hs-578T,17.5 µM (inactive)
same,GI50,SF-268,10.4 µM (inactive)
same,GI50,UACC-62,13.6 µM (inactive)
same,GI50,MDA-MB-435,9.31 µM (inactive)
same,GI50,SN12C,12.8 µM (inactive)
same,GI50,SK-MEL-5,10.7 µM (inactive)
same,GI50,SK-MEL-28,17.5 µM (inactive)
same,GI50,NCI-H226,15.3 µM (inactive)
same,GI50,SF-295,19.1 µM (inactive)
same,GI50,MCF7,5.08 µM (inactive)
same,GI50,OVCAR-8,11.1 µM (inactive)
O=c1[nH]cnc2c1ncn2[C@@H]1C[C@@H]1CO,GI50,COLO 205,> 100 µM (inactive)
same,GI50,HCC 2998,> 100 µM (inactive)
same,GI50,M14,> 100 µM (inactive)
same,GI50,A549,> 100 µM (inactive)
same,GI50,CCRF-CEM,> 100 µM (inactive)
same,GI50,PC-3,> 100 µM (inactive)
same,GI50,CAKI-1,> 100 µM (inactive)
same,GI50,SNB-19,> 100 µM (inactive)
same,GI50,HOP-92,> 100 µM (inactive)
same,GI50,NCI-H23,> 100 µM (inactive)
same,GI50,DU-145,> 100 µM (inactive)
same,GI50,HCT-15,> 100 µM
same,GI50,SK-MEL-2,> 100 µM (inactive)
same,GI50,RXF 393,> 100 µM (inactive)
same,GI50,UACC-257,> 100 µM (inactive)
same,GI50,HL-60,> 100 µM (inactive)
same,GI50,SR,> 100 µM (inactive)
same,GI50,SNB-75,> 100 µM (inactive)
same,GI50,UO-31,> 100 µM (inactive)
same,GI50,786-0,> 100 µM (inactive)
same,GI50,HOP-62,> 100 µM (inactive)
same,GI50,T47D,> 100 µM (inactive)
same,GI50,A498,> 10 µM (inactive)
same,GI50,TK-10,> 100 µM (inactive)
same,GI50,NCI/ADR-RES,> 100 µM (inactive)
same,GI50,U-251,> 100 µM (inactive)
same,GI50,IGROV-1,> 100 µM (inactive)
same,GI50,OVCAR-4,> 100 µM (inactive)
same,GI50,RPMI-8226,> 10 µM (inactive)
same,GI50,KM12,> 100 µM (inactive)
same,GI50,Malme-3M,> 100 µM (inactive)
same,GI50,K562,> 100 µM (inactive)
same,GI50,MOLT-4,> 100 µM (inactive)
same,GI50,MDA-MB-231,> 100 µM (inactive)
same,GI50,LOX IMVI,> 100 µM (inactive)
same,GI50,EKVX,> 100 µM (inactive)
same,GI50,BT-549,> 100 µM (inactive)
same,GI50,MDA-N,> 100 µM (inactive)
same,GI50,NCI-H522,> 100 µM (inactive)
same,GI50,SW-620,> 100 µM (inactive)
same,GI50,SF-539,> 100 µM (inactive)
same,GI50,OVCAR-5,> 100 µM (inactive)
same,GI50,HCT-116,> 100 µM (inactive)
same,GI50,ACHN,> 100 µM (inactive)
same,GI50,HT-29,> 100 µM (inactive)
same,GI50,NCI-H460,> 100 µM (inactive)
same,GI50,Hs-578T,6.22 µM (inactive)
same,GI50,SF-268,> 100 µM (inactive)
same,GI50,UACC-62,> 100 µM (inactive)
same,GI50,MDA-MB-435,> 100 µM (inactive)
same,GI50,SN12C,> 100 µM (inactive)
same,GI50,SK-MEL-5,> 100 µM (inactive)
same,GI50,SK-MEL-28,> 100 µM (inactive)
same,GI50,NCI-H226,> 100 µM (inactive)
same,GI50,MCF7,> 100 µM (inactive)
same,GI50,OVCAR-8,> 100 µM (inactive)
